Laboratory results from patent publication US20240148821A1, “PHARMACEUTICAL USE OF CYCLIC PEPTIDE COMPOUND” (CHUGAI SEIYAKU KABUSHIKI KAISHA, priority 2021, published 2024).
Bridge positions count the residues as written; N and C are the ends. Square brackets hold non-standard residues; d marks the D form. Peptide text beside a SMILES is read from it. * marks the point of attachment. hPhe(3,5-F2-4-CF3) = N[C@@H](CCc1cc(F)c(C(F)(F)F)c(F)c1)C(=O)O; hPhe(3-Cl-4-CF3) = N[C@@H](CCc1ccc(C(F)(F)F)c(Cl)c1)C(=O)O; hPhe(3-F,4-CF3) = N[C@@H](CCc1ccc(C(F)(F)F)c(F)c1)C(=O)O; Thiomorpholino(1,1-dioxo) = O=S1(=O)CCN(*)CC1; NMePhe(4-Me) = CN[C@@H](Cc1ccc(C)cc1)C(=O)O; NMeNle(6-CHF2) = CN[C@@H](CCCCC(F)F)C(=O)O; NMeNva(5,5-F2) = CN[C@@H](CCC(F)F)C(=O)O; NMeGly(cPent) = CN[C@H](C(=O)O)C1CCCC1; Met(O2) = CS(=O)(=O)CC[C@H](N)C(=O)O; NMeAla(cPr) = CN[C@@H](CC1CC1)C(=O)O; NMe3Pal = CN[C@@H](Cc1cccnc1)C(=O)O; NMeCha = CN[C@@H](CC1CCCCC1)C(=O)O; NEtLeu = CCN[C@@H](CC(C)C)C(=O)O; NMeChg = CN[C@H](C(=O)O)C1CCCCC1; NMeI = CC[C@H](C)[C@H](NC)C(=O)O; NMeD = CN[C@@H](CC(=O)O)C(=O)O; NMeL = CN[C@@H](CC(C)C)C(=O)O; NMeNva = CCC[C@H](NC)C(=O)O; NMeV = CN[C@H](C(=O)O)C(C)C; d(β3hA) = C[C@@H](N)CC(=O)O; NMeA = CN[C@@H](C)C(=O)O; Piperidide = C1CCN(*)CC1; Pyrrolidide = C1CCN(*)C1; Ac5c = NC1(C(=O)O)CCCC1; Aze = O=C(O)[C@@H]1CCN1; Ac4c = NC1(C(=O)O)CCC1; Sar = CNCC(=O)O

Tested on: Human pancreatic cancer cell line AsPC-1 (G12D mutation Kras)
Assay: AsPC-1 cell growth inhibition (AsPC-1 CGI)
Type: cell-based
Conditions: read-out: AsPC-1 cell growth inhibition, 50% growth inhibitory concentration (IC50 value); 96 hours, CellTiter-Glo, values classified in ranges
Protocol: Test compounds were serially dilated with dimethyl sulfoxide, and 200 nL was then dispensed to a U-bottom 96-well plate using Labcyte Echo. […] The cell suspension was dispensed to a. plate containing a test compound at 100 μL per well and incubated at 37° C. in a 5% carbon dioxide gas incubator. 96 hours later, 80 μL of CellTiter-Glo (Promega) was added to each well and fluorescence was measured.

First: CC[C@H](C)[C@@H]1NC(=O)[C@H](CC(C)C)N(CC)C(=O)C[C@@H](C(=O)N(C)C)N(C)C(=O)[C@H](C2CCCC2)N(C)C(=O)C2(CCCC2)NC(=O)[C@@H]2CCCN2C(=O)[C@H](CCc2ccc(C(F)(F)F)c(Cl)c2)NC(=O)CN(C)C(=O)[C@H](Cc2ccc(C)cc2)N(C)C(=O)[C@@H]2CCN2C(=O)[C@H](C)NC1=O [Compound 1282] ([NEtLeu]IA[Aze][NMePhe(4-Me)][Sar][hPhe(3-Cl-4-CF3)]P[Ac5c][NMeGly(cPent)][NMeD]-NMe2; lactam N-11)
Second: CCC[C@H]1C(=O)N(C)CC(=O)N[C@@H](CCc2ccc(C(F)(F)F)c(Cl)c2)C(=O)N2CCC[C@H]2C(=O)NC2(CCCC2)C(=O)N(C)[C@@H](C(C)C)C(=O)N(C)[C@H](C(=O)N2CCCCC2)CC(=O)N(C)[C@@H](CC(C)C)C(=O)N[C@@H]([C@@H](C)CC)C(=O)N(C)[C@@H](C)C(=O)N2CC[C@H]2C(=O)N1C [Compound 1027] ([NMeL]I[NMeA][Aze][NMeNva][Sar][hPhe(3-Cl-4-CF3)]P[Ac5c][NMeV][NMeD]-Piperidide; lactam N-11)
The IC50 of the first is lower: at most 20 nM for the first, over 500 nM for the second.

`CC[C@H](C)[C@@H]1NC(=O)[C@H](CC(C)C)N(C)C(=O)C[C@@H](C(=O)N2CCS(=O)(=O)CC2)NC(=O)[C@H]([C@@H](C)CC)N(C)C(=O)C2(CCCC2)NC(=O)[C@@H]2CCCN2C(=O)[C@H](CCc2ccc(C(F)(F)F)c(Cl)c2)NC(=O)CN(C)C(=O)[C@H](CC2CCCCC2)N(C)C(=O)CN(C)C(=O)CN(C)C1=O` [Compound 1279] ([NMeL]I[Sar][Sar][NMeCha][Sar][hPhe(3-Cl-4-CF3)]P[Ac5c][NMeI]D-{Thiomorpholino(1,1-dioxo)}; lactam N-11) and `CC[C@H](C)[C@@H]1NC(=O)[C@H](CC(C)C)N(C)C(=O)C[C@@H](C)NC(=O)[C@H](CC2CC2)N(C)C(=O)C2(CCCC2)NC(=O)[C@@H]2CCCN2C(=O)[C@H](CCc2ccc(C(F)(F)F)c(Cl)c2)NC(=O)CN(C)C(=O)[C@H](CC2CCCCC2)N(C)C(=O)CN(C)C(=O)CN(C)C1=O` [Compound 707] (cyclo([Ac5c][NMeAla(cPr)][d(β3hA)][NMeL]I[Sar][Sar][NMeCha][Sar][hPhe(3-Cl-4-CF3)]P)) cannot be ordered by IC50: over 500 nM for the first, over 500 nM for the second.

`CC[C@H](C)[C@@H]1NC(=O)[C@H](CC(C)C)N(C)C(=O)C[C@@H](C)NC(=O)[C@H](CC(C)C)N(C)C(=O)C2(CCCC2)NC(=O)[C@@H]2CCCN2C(=O)[C@H](CCc2ccc(C(F)(F)F)c(F)c2)NC(=O)CN(C)C(=O)[C@H](CCCCC(F)F)N(C)C(=O)CN(C)C(=O)CN(C)C1=O` [Compound 1515] (cyclo([Ac5c][NMeL][d(β3hA)][NMeL]I[Sar][Sar][NMeNle(6-CHF2)][Sar][hPhe(3-F,4-CF3)]P)) and `CC[C@H](C)[C@@H]1NC(=O)[C@H](CC(C)C)N(C)C(=O)C[C@@H](C(=O)N2CCCCC2)N(C)C(=O)[C@H](C2CCCCC2)N(C)C(=O)C2(CCCC2)NC(=O)[C@@H]2CCCN2C(=O)[C@H](CCc2ccc(C(F)(F)F)c(Cl)c2)NC(=O)CN(C)C(=O)[C@H](CCC(F)F)N(C)C(=O)CN(C)C(=O)CN(C)C1=O` [Compound 1647] ([NMeL]I[Sar][Sar][NMeNva(5,5-F2)][Sar][hPhe(3-Cl-4-CF3)]P[Ac5c][NMeChg][NMeD]-Piperidide; lactam N-11) cannot be ordered by IC50: over 500 nM for the first, over 500 nM for the second.

First: CC[C@H](C)[C@@H]1NC(=O)[C@H](CC(C)C)N(C)C(=O)C[C@@H](C(=O)N2CCCC2)N(C)C(=O)[C@H](C2CCCCC2)N(C)C(=O)C2(CCC2)NC(=O)[C@@H]2CCCN2C(=O)[C@H](CCc2cc(F)c(C(F)(F)F)c(F)c2)NC(=O)CN(C)C(=O)[C@H](CC2CCCCC2)N(C)C(=O)CN(C)C(=O)CN(C)C1=O [Compound 1165] ([NMeL]I[Sar][Sar][NMeCha][Sar][hPhe(3,5-F2-4-CF3)]P[Ac4c][NMeChg][NMeD]-Pyrrolidide; lactam N-11)
Second: CC(C)C[C@H]1C(=O)N[C@@H](CCS(C)(=O)=O)C(=O)N(C)CC(=O)N(C)CC(=O)N(C)[C@@H](CC2CCCCC2)C(=O)N(C)CC(=O)N[C@@H](CCc2ccc(C(F)(F)F)c(Cl)c2)C(=O)N2CCC[C@H]2C(=O)NC2(CCCC2)C(=O)N(C)[C@@H](C2CCCCC2)C(=O)N(C)[C@H](C(=O)N2CCCCC2)CC(=O)N1C [Compound 283] ([NMeL][Met(O2)][Sar][Sar][NMeCha][Sar][hPhe(3-Cl-4-CF3)]P[Ac5c][NMeChg][NMeD]-Piperidide; lactam N-11)
The IC50 of the first is lower: at most 20 nM for the first, over 500 nM for the second. The first is the more potent here.

Work on `CC[C@H](C)[C@@H]1NC(=O)[C@H](C)N(C)C(=O)C[C@@H](C(=O)N2CCCC2)N(C)C(=O)[C@H](C2CCCCC2)N(C)C(=O)C2(CCCC2)NC(=O)[C@H](Cc2cccnc2)N(C)C(=O)[C@H](CCc2ccc(C(F)(F)F)c(Cl)c2)NC(=O)CN(C)C(=O)[C@H](CC2CCCCC2)N(C)C(=O)[C@@H]2CCN2C(=O)CN(C)C1=O` [Compound 1810] ([NMeA]I[Sar][Aze][NMeCha][Sar][hPhe(3-Cl-4-CF3)][NMe3Pal][Ac5c][NMeChg][NMeD]-Pyrrolidide; lactam N-11) yielded an IC50 of over 500 nM.
